Literature values in patent US7217837B2, “Method for producing organic acid” (Mitsubishi Chemical Corporation, priority 2002, dated 2007).

Tests used:
[1] = Table 1; literature values
[2] = Table 1; for pKa1: literature values (Pyne Organic Chemistry; Handbook of Chemistry and Physics); for pKa2: literature values
[3] = water, Table 1, literature values

SMILES	Isoelectric point pI [1]	pKa1 [2]	Solubility at 25° C. [3]	pKa2 [2]
NC(=O)C[C@H](N)C(=O)O [Asparagine]	5.41	2.02	3.11 g/100 gH2O	–
N[C@@H](CC(=O)O)C(=O)O [Aspartic acid]	2.98	–	–	–
N[C@@H](CCC(=O)O)C(=O)O [Glutamic acid]	3.08	–	–	–
NC(=O)CC[C@H](N)C(=O)O [Glutamine]	–	–	3.6 g/100 gH2O	–
O=C(O)CCCC(=O)O [Glutaric acid]	–	4.31	–	5.41
N[C@@H](Cc1c[nH]cn1)C(=O)O [Histidine]	7.64	–	4.29 g/100 gH2O	–
CC[C@H](C)[C@H](N)C(=O)O [Isoleucine]	6.04	2.32	4.117 g/100 gH2O	–
CC(C)C[C@H](N)C(=O)O [Leucine]	–	–	2.19 g/100 gH2O	–
O=C(O)CC(O)C(=O)O (stereo not drawn) [Malic acid]	–	3.40	–	5.11
CSCC[C@H](N)C(=O)O [Methionine]	5.74	2.28	3.35 g/100 gH2O	–
N[C@@H](Cc1ccccc1)C(=O)O [Phenylalanine]	5.91	2.58	2.965 g/100 gH2O	–
O=C(O)CCCCCCC(=O)O [Suberic acid]	–	4.52	–	–
N[C@@H](Cc1c[nH]c2ccccc12)C(=O)O [Tryptophan]	5.88	2.38	1.14 g/100 gH2O	–
N[C@@H](Cc1ccc(O)cc1)C(=O)O [Tyrosine]	5.66	–	–	–
CC(C)[C@H](N)C(=O)O [Valine]	6	2.29	8.85 g/100 gH2O	–
